# Results published in US20220323406A1, “METHODS AND COMPOSITIONS FOR DIFFERENTIATING STEM CELLS” (Massachusetts Institute of Technology, priority 2019, published 2022).
# Structures can show the parent of a compound that is named as a salt.
# Assays:
# [1] = system: ENR+CD organoids (ISC to Paneth cell differentiation); assay: Primary screen: basal (non-stimulated) lysozyme secretion LYZ.NS, 2.5-D 384-well ENR+CD organoid differentiation; assay type: cell-based, mouse; conditions: primary screen; for Z.LYZ.NS: standard z score
# Source text: (§1) High-throughput screening.
# [2] = system: ENR+CD organoids (ISC to Paneth cell differentiation); assay: Primary screen: CCh-stimulated lysozyme secretion LYZ.S, 2.5-D 384-well ENR+CD organoid differentiation; assay type: cell-based, mouse; conditions: primary screen
# Source text: as §1
# ENR+CD organoids = assay: Primary screen: ATP (CellTiter-Glo 3D, CTG) cell number/viability, 2.5-D 384-well ENR+CD organoids; conditions: primary screen; for Z.CTG: standard z score;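 as to all read-outs here: compounds given at plating and again on day 3 over a 6-day differentiation from ENR+CV stem-cell-enriched precursors, ATP measured on day 6, plate median as control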
# [3] = dose 0.08 uM, FC vs plate median
# [4] = dose 0.40 uM, FC vs plate median
# [5] = dose 2.00 uM, FC vs plate median
# [6] = dose 10.00 uM, FC vs plate median
# [7] = dose 0.08 uM, FC relative to plate median
# [8] = dose 0.40 uM, FC relative to plate median
# [9] = dose 2.00 uM, FC relative to plate median
# [10] = dose 10.00 uM, FC relative to plate median
smiles,measurement,setting,value
CCN(CC)C(=O)c1ccc(C2=CC3(CCNCC3)Oc3cccc(O)c32)cc1 [ADL5859 HCl],Dose.FC.LYZ.NS,[1]; dose 0.08 uM,0.053 log2 fold change
same,Z.LYZ.NS (standard z score),[1]; dose 0.08 uM,0.458
same,Dose.FC.LYZ.NS,[1]; dose 0.40 uM,0.019 log2 fold change
same,Z.LYZ.NS (standard z score),[1]; dose 0.40 uM,0.163
same,Dose.FC.LYZ.NS,[1]; dose 2.00 uM,0.066 log2 fold change
same,Z.LYZ.NS (standard z score),[1]; dose 2.00 uM,0.571
same,Dose.FC.LYZ.NS,[1]; dose 10.00 uM,−0.056 log2 fold change
same,Z.LYZ.NS (standard z score),[1]; dose 10.00 uM,−0.488
same,Dose.FC.LYZ.S,[2]; dose 0.08 uM,0.079 log2 fold change
same,Dose.FC.LYZ.S,[2]; dose 0.40 uM,0.104 log2 fold change
same,Dose.FC.LYZ.S,[2]; dose 2.00 uM,0.070 log2 fold change
same,Dose.FC.LYZ.S,[2]; dose 10.00 uM,−0.040 log2 fold change
same,Dose.FC.CTG,ENR+CD organoids; dose 0.08 uM,0.270 log2 fold change
same,Dose.FC.CTG,ENR+CD organoids; dose 0.40 uM,0.163 log2 fold change
same,Dose.FC.CTG,ENR+CD organoids; dose 2.00 uM,0.291 log2 fold change
same,Dose.FC.CTG,ENR+CD organoids; dose 10.00 uM,0.194 log2 fold change
C[C@H](NC(=O)Cc1cc(F)cc(F)c1)C(=O)N[C@@H]1C(=O)N(C)c2ccccc2-c2ccccc21 [YO-01027],Dose.FC.LYZ.NS,[1]; dose 0.08 uM,0.051 log2 fold change
same,Z.LYZ.NS (standard z score),[1]; dose 0.08 uM,0.443
same,Dose.FC.LYZ.NS,[1]; dose 0.40 uM,0.085 log2 fold change
same,Z.LYZ.NS (standard z score),[1]; dose 0.40 uM,0.739
same,Dose.FC.LYZ.NS,[1]; dose 2.00 uM,−0.080 log2 fold change
same,Z.LYZ.NS (standard z score),[1]; dose 2.00 uM,−0.699
same,Dose.FC.LYZ.NS,[1]; dose 10.00 uM,−0.157 log2 fold change
same,Z.LYZ.NS (standard z score),[1]; dose 10.00 uM,−1.369
same,Dose.FC.LYZ.S,[2]; dose 0.08 uM,0.105 log2 fold change
same,Dose.FC.LYZ.S,[2]; dose 0.40 uM,−0.058 log2 fold change
same,Dose.FC.LYZ.S,[2]; dose 2.00 uM,−0.020 log2 fold change
same,Dose.FC.LYZ.S,[2]; dose 10.00 uM,−0.184 log2 fold change
same,Dose.FC.CTG,ENR+CD organoids; dose 0.08 uM,0.221 log2 fold change
same,Z.CTG (standard z score),ENR+CD organoids; dose 0.08 uM,0.528
same,Dose.FC.CTG,ENR+CD organoids; dose 0.40 uM,−0.475 log2 fold change
same,Z.CTG (standard z score),ENR+CD organoids; dose 0.40 uM,−1.135
same,Dose.FC.CTG,ENR+CD organoids; dose 2.00 uM,−0.571 log2 fold change
same,Z.CTG (standard z score),ENR+CD organoids; dose 2.00 uM,−1.363
same,Dose.FC.CTG,ENR+CD organoids; dose 10.00 uM,−1.032 log2 fold change
same,Z.CTG (standard z score),ENR+CD organoids; dose 10.00 uM,−2.464
C[C@](O)(COc1ccc(C#N)cc1)C(=O)Nc1ccc(C#N)c(C(F)(F)F)c1 [MK-2866 (GTx-024)],Z.LYZ.NS,[1]; dose 0.08 uM,0.309
same,Z.LYZ.NS,[1]; dose 0.40 uM,0.241
same,Z.LYZ.NS,[1]; dose 2.00 uM,0.310
same,Z.LYZ.NS,[1]; dose 10.00 uM,−0.510
same,Dose.FC.LYZ.NS,[1]; [3],0.035 log2 fold change
same,Dose.FC.LYZ.NS,[1]; [4],0.028 log2 fold change
same,Dose.FC.LYZ.NS,[1]; [5],0.036 log2 fold change
same,Dose.FC.LYZ.NS,[1]; [6],−0.059 log2 fold change
same,Dose.FC.LYZ.S,[2]; [3],0.072 log2 fold change
same,Dose.FC.LYZ.S,[2]; [4],0.050 log2 fold change
same,Dose.FC.LYZ.S,[2]; [5],0.078 log2 fold change
same,Dose.FC.LYZ.S,[2]; [6],−0.072 log2 fold change
same,Z.CTG,ENR+CD organoids; dose 0.08 uM,0.003
same,Z.CTG,ENR+CD organoids; dose 0.40 uM,−0.474
same,Z.CTG,ENR+CD organoids; dose 2.00 uM,−0.210
same,Z.CTG,ENR+CD organoids; dose 10.00 uM,−0.877
same,Dose.FC.CTG,ENR+CD organoids; [3],0.001 log2 fold change
same,Dose.FC.CTG,ENR+CD organoids; [4],−0.198 log2 fold change
same,Dose.FC.CTG,ENR+CD organoids; [5],−0.088 log2 fold change
same,Dose.FC.CTG,ENR+CD organoids; [6],−0.367 log2 fold change
COc1cc2c(N3CCN(C(=O)Nc4ccc(OC(C)C)cc4)CC3)ncnc2cc1OCCCN1CCCCC1 [Tandutinib (MLN518)],Dose.FC.LYZ.NS,[1]; [7],0.095 log2 fold change
same,Z.LYZ.NS,[1]; dose 0.08 uM,0.828
same,Dose.FC.LYZ.NS,[1]; [8],0.122 log2 fold change
same,Z.LYZ.NS,[1]; dose 0.40 uM,1.066
same,Dose.FC.LYZ.NS,[1]; [9],0.116 log2 fold change
same,Z.LYZ.NS,[1]; dose 2.00 uM,1.012
same,Dose.FC.LYZ.NS,[1]; [10],0.047 log2 fold change
same,Z.LYZ.NS,[1]; dose 10.00 uM,0.407
same,Dose.FC.LYZ.S,[2]; [7],0.145 log2 fold change
same,Dose.FC.LYZ.S,[2]; [8],0.178 log2 fold change
same,Dose.FC.LYZ.S,[2]; [9],0.093 log2 fold change
same,Dose.FC.LYZ.S,[2]; [10],0.100 log2 fold change
same,Dose.FC.CTG,ENR+CD organoids; [7],0.585 log2 fold change
same,Z.CTG,ENR+CD organoids; dose 0.08 uM,1.397
same,Dose.FC.CTG,ENR+CD organoids; [8],0.354 log2 fold change
same,Z.CTG,ENR+CD organoids; dose 0.40 uM,0.845
same,Dose.FC.CTG,ENR+CD organoids; [9],0.358 log2 fold change
same,Z.CTG,ENR+CD organoids; dose 2.00 uM,0.856
same,Dose.FC.CTG,ENR+CD organoids; [10],0.586 log2 fold change
same,Z.CTG,ENR+CD organoids; dose 10.00 uM,1.401
Oc1c2ccccc2c2c3c(cccc13)N=N2 [SP600125],Dose.FC.LYZ.NS,[1]; [7],0.135 log2 fold change
same,Z.LYZ.NS,[1]; dose 0.08 uM,1.174
same,Dose.FC.LYZ.NS,[1]; [8],0.027 log2 fold change
same,Z.LYZ.NS,[1]; dose 0.40 uM,0.232
same,Dose.FC.LYZ.NS,[1]; [9],0.152 log2 fold change
same,Z.LYZ.NS,[1]; dose 2.00 uM,1.321
same,Dose.FC.LYZ.NS,[1]; [10],0.022 log2 fold change
same,Z.LYZ.NS,[1]; dose 10.00 uM,0.187
same,Dose.FC.LYZ.S,[2]; [7],0.188 log2 fold change
same,Dose.FC.LYZ.S,[2]; [8],0.092 log2 fold change
same,Dose.FC.LYZ.S,[2]; [9],0.090 log2 fold change
same,Dose.FC.LYZ.S,[2]; [10],0.084 log2 fold change
same,Dose.FC.CTG,ENR+CD organoids; [7],0.197 log2 fold change
same,Dose.FC.CTG,ENR+CD organoids; [8],0.145 log2 fold change
same,Dose.FC.CTG,ENR+CD organoids; [9],0.103 log2 fold change
same,Dose.FC.CTG,ENR+CD organoids; [10],−0.020 log2 fold change
